Assay results as given in US11938136B2, “Compositions for treating spinal muscular atrophy” (Hoffmann-La Roche Inc., priority 2015, dated 2024).
Read-outs that look alike come from different tables or passages of the source.

What was measured:
SMN protein [1] = test: SMN protein in spinal motor neurons derived from SMA patient iPSCs (immunostaining); assay type: cell-based, human
Method: (§1) (A) SMN2 splicing in SMA Type 1 fibroblasts. (B) SMN protein in SMA Type 1 fibroblasts. (C) SMN protein in SMA Type 1 motor neurons. (D) SMN1 and SMN2 splicing in whole blood derived from HV. Fibroblasts from SMA Type 1 patients were cultured for 24 hours (A) or 48 hours (B); motor neurons from SMA Type 1 patient iPSCs (induced Pluripotent Stem Cells) were cultured for 72 hours (C) and whole blood cells from healthy volunteers (HV) for 4 hours (D) in the presence of the compound of Example 20. SMN splicing was assessed by RT-PCR, and SMN protein levels were assessed by homogenous time-resolved fluorescence (HTRF) in fibroblast lysates, and by immunostaining for SMN in motor neurons. Data represent means standard error (SEM) of 3 evaluations per data point and are expressed as fold change vs. untreated controls.

SMN2 splicing = test: Ex vivo whole blood assay, SMN2 splicing; assay type: cell-based, human; settings: whole blood cells from healthy volunteers, 4 hours
Method: as §1, with “controls. To further assess SMN2 splicing as a potential blood biomarker, an ex vivo assay was developed using whole blood cells from healthy volunteers in which SMN1 and SMN2 splicing was assessed after 4 hours treatment with the compound of Example 20 (at this time point, maximal splicing changes were achieved).” for “controls.”

SMN1 splicing = test: Ex vivo whole blood assay, SMN1 splicing; assay type: cell-based, human; settings: whole blood cells from healthy volunteers, 4 hours
Method: as §1, with “controls. To further assess SMN2 splicing as a potential blood biomarker, an ex vivo assay was developed using whole blood cells from healthy volunteers in which SMN1 and SMN2 splicing was assessed after 4 hours treatment with the compound of Example 20 (at this time point, maximal splicing changes were achieved).” for “controls.”

SMN protein [2] = test: SMN protein in brain and quadriceps muscle of C/C-allele mice (HTRF); assay type: in vivo, mouse
Method: (A) SMN protein in brains of C/C-allele mice. (B) SMN protein in brains of SMNΔ7 mice. (C) SMN protein in quadriceps muscle of C/C-allele mice. (D) SMN protein in quadriceps muscle of SMNΔ7 mice. C/C-allele mice and SMNΔ7 mice were treated with the compound of Example 20. One hour after the last dose, brains and quadriceps muscles were collected and levels of SMN protein were assessed by HTRF. Data represent means SEM of 5-6 animals per group and are expressed as fold change vs. vehicle-treated controls. *=p<0.05, **=p<0.01, ***=p<0.001 vs. untreated controls.
In vivo, the compound of Example 20 increases SMN protein in the brain and muscle in the severe SMNΔ7 model and the milder C/C-allele model, carrying human SMN2 transgenes. Adult C/C-allele mice were treated for 10 days with vehicle or the compound of Example 20 (1, 3 or 10 mg/kg PO, daily), and 3 days old (P3) SMNΔ7 mice were treated for 7 days with vehicle or the compound of Example 20 (0.1, 0.3, 1 or 3 mg/kg IP, daily). […] In SMNΔ7 mice, the SMN protein increase was only partial in both brain and muscle, reaching approximately 43% (brain) and 55% (muscle) of protein levels in heterozygous mice.

FoxM1 = test: Alternative splicing of FoxM1 in SMA Type I patient fibroblasts (RT-qPCR); assay type: cell-based; settings: Homo sapiens, Fibroblast, 24 hours
Method: FIG. 5. Alternative Splicing of FoxM1 in vitro SMA Type I patient fibroblasts were treated with the compound of Example 20 for 24 hours, and FoxM1 full-length (FL) and exon 9-lacking (Δ9) mRNAs were analyzed by RT-qPCR. Data represent means SEM of 6 repetitions and are expressed as fold change vs. untreated controls.
FoxM1, a gene alternatively spliced by other splicing modifier compounds, encodes a cell cycle regulator. […] 2007 February; 3(1):1-3. Laoukili et al, Biochim Biophys Acta. 2007 January; 1775(1):92-102]. […] Increased expression of the FoxM1A isoform, together with decreased expression of FoxM1 isoforms lacking exon 9, has the capability to disturb and inhibit cell cycle progression if splicing changes are at a level that is biologically significant. Thus, the compound of Example 20 acts in a similar way on the SMN2 and FoxM1 splicing machinery, but with opposing outcomes with regard to protein function and at varying degrees. The EC50 for MADD, a gene also identified as affected by splicing modifiers including the compound of Example 20 at high concentrations and known to be involved in apoptotic processes, is not known.

## Cc1cn2nc(-c3cc(=O)n4cc(N5CCNC6(CC6)C5)ccc4n3)cc(C)c2n1 [Example 20, 7-(4,7-diazaspiro[2.5]octan-7-yl)-2-(2,8-dimethylimidazo[1,2-b]pyridazin-6-yl)pyrido[1,2-a]pyrimidin-4-one]
SMN protein [1]; motor neurons from SMA patient iPSCs
  maximal increase in SMN protein above untreated cells: 60-80%
SMN protein [1]; spinal motor neurons from SMA patient iPSCs, 72 hours
  EC50: 182 ± 114 nM
SMN2 splicing
  concentration at which effects on splicing were evident: above 100 nM
  effect on SMN2 splicing: dose-dependently altered towards inclusion of exon 7
SMN1 splicing
  effect on SMN1 splicing: largely unaffected
SMN protein [2]; C/C-allele mice, 10 mg/kg dose
  SMN levels in muscle compared with heterozygous mice: no different from those in heterozygous mice
SMN protein [2]; adult C/C-allele mice, 10 mg/kg PO daily, 10 days
  maximum increase of SMN protein levels in brain and muscle tissue: 2-3 fold
FoxM1; read-out: EC50 for FoxM1 FL mRNA
  EC50: 67 ± 32 nM
FoxM1; read-out: EC50 for FoxM1 Δ9 mRNA
  EC50: 139 ± 43 nM
